Test systems include DMS-273; RXF 631; KM-20L2; XF498; DLD-1; SNB-78; M19-MEL; DMS-114; HOP-18.
What all share (experiment): inhibition of tumour cell growth, NCI panel, 48 h

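48-hour exposure; five concentrations; linearly interpolated endpoints. GI50 = concentration required for 50% inhibition of growth.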 Calls of active or inactive are those of the source. Cut-off read from the data, not from the text of the source: active = GI50 up to about 1.1 µM and inactive = higher.

As to `S=C(N/N=C/c1ccccc1)NC12CC3CC(CC(C3)C1)C2`, the GI50 in the experiment on DMS-273 is 22.6 µM (inactive); in the experiment on RXF 631, 44.5 µM (inactive); in the experiment with KM-20L2 it was 7.08 µM (inactive); in the experiment with XF498, 35.8 µM (inactive).
As for `CC(=O)C(CN(C)C)C(c1ccccc1)c1c(O)c2ccccc2oc1=O` (stereo not drawn), the GI50 with DMS-273, in the experiment on DLD-1, in the experiment with SNB-78, in the experiment on KM-20L2, in the experiment with XF498 and in the experiment on M19-MEL was > 100 µM (inactive) each time. In addition, the GI50 is 93.3 µM (inactive) in the experiment on DMS-114 and > 100 µM (inactive) in the experiment on HOP-18.
In the case of `COc1ccc(C=O)c(NC(=O)C(C)C)c1`, the GI50 in the experiment with DMS-273 is 28.9 µM (inactive); in the experiment on SNB-78, 66.1 µM (inactive); with KM-20L2, 51.5 µM (inactive); with XF498, 21.9 µM (inactive); in the experiment with M19-MEL it was 21 µM (inactive); in the experiment with DMS-114, 24.4 µM (inactive). In the experiment on HOP-18, the GI50 is 39.7 µM (inactive).
For the molecule `O=c1cccccc1NCCCCCCNc1cccccc1=O`, the GI50 with DMS-273, in the experiment on DLD-1, with SNB-78, with RXF 631, with KM-20L2 and in the experiment with M19-MEL was > 100 µM (inactive) throughout. In addition, the GI50 in the experiment on DMS-114 and with HOP-18 was > 100 µM (inactive) each time.
As to `CC(=O)OCCOCNC(=S)N/N=C(\C)c1cnc2ccccc2n1`, the GI50 in the experiment on DMS-273 was 31.9 µM (inactive); in the experiment with DLD-1 it was 26.2 µM (inactive); with SNB-78, > 100 µM (inactive); in the experiment on KM-20L2, 16.3 µM (inactive); in the experiment with XF498, > 100 µM (inactive); in the experiment with M19-MEL, 15.8 µM (inactive). For the same molecule, the values for the GI50 with DMS-114 and in the experiment with HOP-18 were 15.6 µM (inactive) and > 100 µM (inactive), respectively.
In the case of `CC1S(=O)(=O)OCCOS1(=O)=O`, the GI50 in the experiment on DMS-273 was 60 µM (inactive); in the experiment on DLD-1, > 100 µM (inactive); in the experiment on SNB-78, > 100 µM (inactive); in the experiment with RXF 631, 31.7 µM (inactive); in the experiment on KM-20L2, > 100 µM (inactive); in the experiment on M19-MEL, > 100 µM (inactive). Moreover, the figures for the GI50 in the experiment with DMS-114 and with HOP-18 were 39.2 µM (inactive) and > 100 µM (inactive), respectively.
Take `CCOC(=O)C1=C(NC)OCC1=O`: the GI50 in the experiment with DMS-273, with SNB-78, with RXF 631, with KM-20L2, in the experiment on XF498 and with M19-MEL was > 100 µM (inactive) in each case. Also, the GI50 in the experiment with DMS-114 is > 100 µM (inactive).
Consider `CCOC(=O)/C=C/n1c2ccccc2c(=O)c2cc(OC)ccc21`, for which the GI50 with DMS-273 was 49 µM (inactive); in the experiment on DLD-1 it was 69.7 µM (inactive); with RXF 631, 87.5 µM (inactive); in the experiment on KM-20L2, > 100 µM (inactive); with XF498, 48.5 µM (inactive); in the experiment with M19-MEL, > 100 µM (inactive). Further, the GI50 with DMS-114 was 65.2 µM (inactive); in the experiment on HOP-18, > 100 µM (inactive).
Turning to `C[C@]12CCC(=O)CC1CCCC2=O` (stereo partly drawn), the GI50 in the experiment with DMS-273, in the experiment with DLD-1, in the experiment with SNB-78, in the experiment on RXF 631, in the experiment on XF498 and in the experiment on M19-MEL was > 100 µM (inactive) each time. Moreover, the GI50 in the experiment on DMS-114 is > 100 µM (inactive).
On to `COC(=O)[C@H](Cc1ccccc1)NC(=O)/C(=C/C(C)C)NC(=O)[C@H](CCSC)NC=O`, for which the GI50 with DMS-273, in the experiment on DLD-1, in the experiment with KM-20L2, in the experiment on XF498, with M19-MEL and in the experiment with DMS-114 was > 100 µM (inactive) throughout. The GI50 in the experiment on HOP-18 was > 100 µM (inactive).
`O=C(Cc1ccccc1)NN1C(=O)C(Cl)C1c1ccc(Cl)cc1` (stereo not drawn): the GI50 with DMS-273, with DLD-1, in the experiment on SNB-78, in the experiment on KM-20L2, in the experiment on XF498 and in the experiment on DMS-114 was > 100 µM (inactive) each time. In the experiment with HOP-18, the GI50 was > 100 µM (inactive).
For the molecule `COc1cc([C@@H]2c3cc4c(cc3[C@@H](NC(=O)c3ccc(C#N)cc3)C3COC(=O)[C@@H]32)OCO4)cc(OC)c1O` (stereo partly drawn), the GI50 is 0.0276 µM (active) with DMS-273; 1.64 µM (inactive) with DLD-1; 6.03 µM (inactive) in the experiment with SNB-78; 0.785 µM (active) in the experiment on KM-20L2; 1.26 µM (inactive) in the experiment on M19-MEL; 0.315 µM (active) in the experiment on DMS-114. The GI50 with HOP-18 is 55.1 µM (inactive).
Consider `CN1C/C(=C\c2ccc(C(=O)O)cc2)C(=O)/C(=C/c2ccc(C(=O)O)cc2)C1`, for which the GI50 in the experiment on DMS-273, in the experiment with DLD-1, with SNB-78, with RXF 631, in the experiment with KM-20L2 and in the experiment on XF498 was > 100 µM (inactive) in each case. Moreover, the GI50 with M19-MEL, in the experiment on DMS-114 and in the experiment with HOP-18 was > 100 µM (inactive) throughout.
On to `CN(C)CC1(Cc2ccccc2)CC/C(=C\c2ccccc2)C1=O` (stereo not drawn), for which the GI50 with DMS-273 is 36.5 µM (inactive); with DLD-1, 27.6 µM (inactive); in the experiment with SNB-78, 52.2 µM (inactive); with RXF 631 it was 29.3 µM (inactive); in the experiment with KM-20L2, 17.2 µM (inactive); in the experiment with XF498 it was 80.9 µM (inactive). Moreover, the GI50 with M19-MEL was 26.8 µM (inactive); with DMS-114 it was 31.3 µM (inactive); with HOP-18, > 100 µM (inactive).
In the case of `C/N=c1\ss/c(=N\C(=S)N(C)C)n1-c1ccccc1`, the GI50 in the experiment on DMS-273 was > 100 µM (inactive); in the experiment with DLD-1, > 100 µM (inactive); with SNB-78 it was 46 µM (inactive); in the experiment on KM-20L2 it was > 100 µM (inactive); in the experiment with M19-MEL, > 100 µM (inactive); in the experiment on DMS-114, > 67.8 µM (inactive). The GI50 in the experiment with HOP-18 is > 100 µM (inactive).
As for `COC(=O)C1=C(OC)c2cc3c(cc2C(c2cc(OC)c(OC)c(OC)c2)C1C(=O)OC)OCO3` (stereo not drawn), the GI50 in the experiment with DMS-273, in the experiment on DLD-1, in the experiment on SNB-78, with KM-20L2, with XF498 and in the experiment on M19-MEL was > 100 µM (inactive) each time. Further, the GI50 in the experiment with DMS-114 and in the experiment on HOP-18 was > 100 µM (inactive) in each case.
`CP(=O)(CCSc1ccccc1)c1ccccc1` (stereo not drawn): the GI50 with DMS-273, in the experiment on DLD-1, with SNB-78, in the experiment with KM-20L2, in the experiment on XF498 and in the experiment on M19-MEL was > 100 µM (inactive) throughout. Moreover, the GI50 in the experiment with DMS-114 and with HOP-18 was > 100 µM (inactive) each time.
Turning to `C/C(=N\NC(=S)Nc1ccc([N+](=O)[O-])cc1S(=O)(=O)O)c1ccccn1`, the GI50 is 37 µM (inactive) in the experiment with DMS-273; 41.2 µM (inactive) in the experiment on DLD-1; > 100 µM (inactive) in the experiment with SNB-78; > 100 µM (inactive) with RXF 631; 26.3 µM (inactive) in the experiment with KM-20L2; 30 µM (inactive) in the experiment with XF498. The GI50 in the experiment with M19-MEL was 43.8 µM (inactive); in the experiment on DMS-114, 39.7 µM (inactive); with HOP-18, 40.1 µM (inactive).
Turning to `Sc1nc(S)nc(Oc2ccc(Cl)c(Cl)c2)n1`, the GI50 in the experiment with DMS-273 was 19 µM (inactive); in the experiment on DLD-1 it was 27.1 µM (inactive); in the experiment on SNB-78, 34.4 µM (inactive); in the experiment with RXF 631, 16.3 µM (inactive); in the experiment on KM-20L2, 33.6 µM (inactive); in the experiment with XF498, 25.4 µM (inactive). Also, the GI50 in the experiment with M19-MEL is 22.8 µM (inactive); in the experiment with DMS-114, 19.1 µM (inactive); in the experiment on HOP-18, 36.4 µM (inactive).
Consider `O=c1cc2ccccc2nn1Cc1ccccc1Cl`, for which the GI50 with DMS-273 was > 100 µM (inactive); in the experiment with DLD-1, > 100 µM (inactive); in the experiment on SNB-78 it was > 100 µM (inactive); in the experiment with KM-20L2 it was > 100 µM (inactive); with XF498, 80.2 µM (inactive); with M19-MEL, > 100 µM (inactive). Besides, the GI50 in the experiment on DMS-114 is 67.6 µM (inactive); in the experiment with HOP-18 it was > 100 µM (inactive).
In the case of `COc1cc(Cc2cc(OC)c(OC)c(OC)c2)ccc1O`, the GI50 is 6.11 µM (inactive) in the experiment on DLD-1; 40.6 µM (inactive) in the experiment on SNB-78; 36.5 µM (inactive) in the experiment on KM-20L2; 19.9 µM (inactive) in the experiment on XF498; 6.38 µM (inactive) with M19-MEL; 4.63 µM (inactive) with DMS-114.
As for `c1ccc(N2CCN(CCN3CCc4c([nH]c5ccccc45)C3c3cccnc3)CC2)cc1` (stereo not drawn), the GI50 with DMS-273 is > 100 µM (inactive); with DLD-1, > 100 µM (inactive); in the experiment with SNB-78, 56.8 µM (inactive); in the experiment on RXF 631, 39.5 µM (inactive); with KM-20L2, > 100 µM (inactive); in the experiment with XF498, 89.9 µM (inactive). The GI50 in the experiment with M19-MEL, in the experiment with DMS-114 and in the experiment with HOP-18 was > 100 µM (inactive) each time.
Turning to `FC(F)(F)c1nc(-c2ccccc2)oc1Sc1oc(-c2ccccc2)nc1C(F)(F)F`, the GI50 was 66.7 µM (inactive) in the experiment on DMS-273; > 100 µM (inactive) in the experiment on DLD-1; > 100 µM (inactive) with SNB-78; > 100 µM (inactive) in the experiment on KM-20L2; 34.8 µM (inactive) in the experiment on XF498; > 100 µM (inactive) in the experiment with M19-MEL. The GI50 was 40.3 µM (inactive) with DMS-114 and 73.6 µM (inactive) in the experiment with HOP-18.
As to `CC(C)OC(=O)c1cc(NC(=O)C(C)(C)C)c(F)cc1Cl`, the GI50 with DMS-273, with RXF 631, in the experiment with KM-20L2, in the experiment with XF498, with M19-MEL and in the experiment with DMS-114 was > 100 µM (inactive) throughout. In addition, the GI50 with HOP-18 was > 100 µM (inactive).
